Assay results as given in patent US4002752A, “Piperazinylimino rifamycins” (Gruppo Lepetit S.p.A., priority 1975, dated 1977).
Converted amounts (≈) assume the structure as drawn.

Experiments:
[1] = system: Mycobacterium tuberculosis H37 Rv; test: minimal inhibitory concentration in vitro against Mycobacterium tuberculosis H37 Rv; format: cell-based; conditions: H37RV
Method: For instance, the value of the minimal inhibitory concentration in vitro of the "cyclopentyl derivative" against Mycobacterium tuberculosis H37 Rv is 0.05 μg/ml, while that of rifampicin is 0.5 μg/ml.

[2] = system: Mycobacterium tuberculosis H37 Rv; test: survival time of mice infected with Mycobacterium tuberculosis H37 Rv; format: in vivo; conditions: once a week administration per os versus daily administration of rifampicin at the same dose level
Source text: The unexpected biological characteristics of the novel rifamycins have been evidenced by considering the survival time after a daily administration of rifampicin in comparison with a once a week administration of the same dose level per os of 3-(4-cyclopentyl-1-piperazinyl)iminomethylrifamycin SV (hereinafter referred to as "cyclopentyl derivative") to mice infected with Mycobacterium tuberculosis H37 Rv.

[3] = in vivo; conditions: mouse
[4] = system: Staphylococcus aureus; test: experimental Staphylococcus aureus infections in mice; format: in vivo; conditions: po; Staphylococcus aureus infection in mice
[5] = toxicity in mice (LD50); conditions: mouse, in vivo

COC1C=COC2(C)Oc3c(C)c(O)c4c(O)c(c(C=NN5CCN(C6CCCC6)CC5)c(O)c4c3C2=O)NC(=O)C(C)=CC=CC(C)C(O)C(C)C(O)C(C)C(OC(C)=O)C1C (stereo not drawn) [cyclopentyl derivative, 3-(4-cyclopentyl-1-piperazinyl)iminomethylrifamycin SV]
MIC [1]: 0.05 µg/mL (≈ 0.057 µM) | survival time [2]: about the same survival time | LD50 ([3]; ip): > 750 mg/kg | LD50 ([3]; po): > 2000 mg/kg

COC1C=COC2(C)Oc3c(C)c(O)c4c(O)c(c(C=NN5CCN(C6CCC6)CC5)c(O)c4c3C2=O)NC(=O)C(C)=CC=CC(C)C(O)C(C)C(O)C(C)C(OC(C)=O)C1C (stereo not drawn) [cyclobutyl derivative, 3-(4-cyclobutyl-1-piperazinyl)iminomethylrifamycin SV]
ED50 [4]: 0.16 mg/kg | LD50 ([3]; ip): > 650 mg/kg | LD50 ([3]; po): > 2000 mg/kg

CO[C@H]1/C=C/O[C@@]2(C)Oc3c(C)c(O)c4c(O)c(c(/C=N/N5CCN(C)CC5)c(O)c4c3C2=O)NC(=O)/C(C)=C\C=C\[C@H](C)[C@H](O)[C@@H](C)[C@@H](O)[C@@H](C)[C@H](OC(C)=O)[C@@H]1C [rifampicin]
LD50 ([5]; ip): 416 mg/kg | LD50 ([5]; po): 907 mg/kg
